The structures appear in SMILES notation. ≈ marks a conversion by molar mass, not a printed value. Where “and” joins values, the source holds several entries; their conditions need not be identical. Equal values may be shown once.

The term MIC denotes the lowest concentration that inhibits growth of the organism. High values mean weaker potency, low ones greater potency.

Among the test systems are Escherichia coli D31; Escherichia coli K-12; Acinetobacter baumannii; Candida albicans; Salmonella typhimurium; Micrococcus luteus; Shigella dysenteriae; Serratia marcescens; Pseudomonas aeruginosa; Bacillus subtilis; Proteus mirabilis; Escherichia coli; Klebsiella pneumoniae.
Experiment in all cases: ≥ marks a high value that may be exact or a test limit, other limits are often not marked, values filed in µg/mL are converted to µM
The test system of assay [1] is Staphylococcus aureus NCTC 10788.
In assay [2] the test system is Candida albicans NCYC 1467.
The subject of assay [3] is Staphylococcus aureus NCTC 12493.
For assay [4], the system named is Pseudomonas aeruginosa ATCC 27853.
Assay [5] deals with Klebsiella pneumoniae ATCC 43816.
The test system of assay [6] is Enterococcus faecalis NCTC 12697.
The test system of assay [7] is Escherichia coli NCTC 10418.
For assay [8], the system named is Acinetobacter baumannii NM75.
The test system of assay [9] is Staphylococcus aureus USA 300.
Assay [10] deals with Streptococcus mutans ATCC 25175.
For assay [11], the system named is Acinetobacter baumannii NM124.
For assay [12], the system named is Pseudomonas aeruginosa ATCC 15442.
In assay [13] the test system is Acinetobacter baumannii NM35.
For assay [14], the system named is Acinetobacter baumannii NM8.
In assay [15] the test system is Escherichia coli ATCC 25726.
Assay [16] has as its system Candida albicans ATCC 90028.
In assay [17] the test system is Acinetobacter baumannii NM109.
Assay [18] deals with Candida albicans ATCC 10231.
Assay [19] relates to Staphylococcus aureus ATCC 25923.
Assay [20] relates to Escherichia coli CCT 1457.
Assay [21] deals with Staphylococcus aureus CCT 2580.
Assay [22] deals with Bacillus cereus ATCC 11778.
The subject of assay [23] is Staphylococcus epidermidis RP62A.
Assay [24] deals with Klebsiella pneumoniae ATCC 700603.
Assay [25] concerns Stenotrophomonas maltophilia B32/4.
Assay [26] has as its system Staphylococcus epidermidis RP62A/1.
Assay [27] concerns Micrococcus luteus DSM 20030.

For the molecule `CC[C@H](C)[C@H](NC(=O)[C@H](C)NC(=O)[C@H](CO)NC(=O)[C@@H](NC(=O)[C@H](C)NC(=O)[C@H](CCCCN)NC(=O)[C@@H]1CCCN1C(=O)[C@@H](NC(=O)[C@H](CC(C)C)NC(=O)[C@H](CO)NC(=O)[C@H](CC(C)C)NC(=O)[C@@H](N)Cc1ccccc1)[C@@H](C)CC)[C@@H](C)CC)C(=O)N[C@@H](CO)C(=O)N[C@@H](C)C(=O)N[C@@H](CC(C)C)C(=O)N[C@@H](C)C(=O)N[C@@H](CC(N)=O)C(=O)N[C@@H](Cc1cnc[nH]1)C(=O)N[C@@H](Cc1ccccc1)C(N)=O` [FLSLIPKAISAISALANHF], the minimal inhibitory concentration (MIC) is 4 µM (≈ 8.05 µg/mL) in assay [1]; 8 µM (≈ 16.1 µg/mL) in assay [2]; 16 µM (≈ 32.2 µg/mL) in assay [3]; above 512 µM in assay [4]; at least 256 µM in assay [5]; at least 64 µM in assay [6]. Moreover, the MIC in assay [7] is at least 64 µM.
`CC[C@H](C)[C@H](NC(=O)CN)C(=O)N[C@@H](Cc1c[nH]c2ccccc12)C(=O)N[C@@H](CC(=O)O)C(=O)N[C@H](C(=O)N[C@H](C(=O)N[C@@H](CCCCN)C(=O)N[C@@H](CO)C(=O)N[C@@H](CCSC)C(=O)NCC(=O)N[C@@H](CCCCN)C(=O)N[C@H](C(=O)N[C@@H](Cc1ccccc1)C(=O)N[C@@H](C)C(=O)NCC(=O)N[C@@H](CCCCN)C(=O)N[C@H](C(=O)N[C@@H](CC(C)C)C(=O)N[C@@H](CCC(N)=O)C(=O)N[C@@H](CC(N)=O)C(=O)N[C@@H](CC(C)C)C(N)=O)[C@@H](C)CC)C(C)C)[C@@H](C)CC)[C@@H](C)O` [GIWDTIKSMGKVFAGKILQNL]: the MIC in assay [8] is 3 µM (≈ 6.96 µg/mL); in assay [9], 25 µM (≈ 58 µg/mL); in assay [10], at least 100 µM; in assay [11], 6 µM (≈ 13.9 µg/mL); in [12] it was at least 100 µM; in [13] it was 6 µM (≈ 13.9 µg/mL). In addition, the minimum inhibitory concentration (MIC) in [14] was 6 µM (≈ 13.9 µg/mL); in assay [15], 25 µM (≈ 58 µg/mL); in assay [16] it was 12.5 µM (≈ 29 µg/mL); in [17], 6 µM (≈ 13.9 µg/mL); against Escherichia coli D31 it was at least 32 µM; against Escherichia coli K-12 it was 25 µM (≈ 58 µg/mL). Also, the minimal inhibitory concentration (MIC) was 16 µM (≈ 37.1 µg/mL) in [18]; 12.5 µM (≈ 29 µg/mL) against Acinetobacter baumannii; 25 µM and 22.6 µM in [19].
`CC[C@H](C)[C@H](N)C(=O)N[C@@H](CC(=O)O)C(=O)N[C@@H](Cc1c[nH]c2ccccc12)C(=O)N[C@@H](CC(C)C)C(=O)N[C@@H](CCCCN)C(=O)N[C@@H](CC(C)C)C(=O)NCC(=O)N[C@@H](CCCCN)C(=O)N[C@@H](CCSC)C(=O)N[C@H](C(=O)N[C@@H](CCSC)C(=O)N[C@@H](CC(=O)O)C(=O)N[C@H](C(=O)N[C@@H](CC(C)C)C(N)=O)C(C)C)C(C)C` [IDWLKLGKMVMDVL]: the MIC in assay [12] is at least 301 µM; in [20], at least 37.3 µM; in assay [21], 18.7 µM (≈ 31 µg/mL); in assay [22], at least 37.3 µM.
`CC[C@H](C)[C@H](N)C(=O)N[C@@H](CC(C)C)C(=O)NCC(=O)N[C@@H](CCCCN)C(=O)N[C@@H](CC(C)C)C(=O)N[C@@H](CC(C)C)C(=O)N[C@@H](CO)C(=O)N[C@H](C(=O)N[C@@H](C)C(=O)N[C@@H](C)C(=O)N[C@@H](CCCCN)C(=O)N[C@@H](CC(C)C)C(=O)N[C@@H](CC(C)C)C(=O)N[C@@H](CO)C(=O)N[C@@H](CC(N)=O)C(=O)N[C@@H](CC(C)C)C(N)=O)[C@@H](C)O` [ILGKLLSTAAKLLSNL]: the MIC is 4 µM (≈ 6.62 µg/mL) in assay [23]; 32 µM (≈ 52.9 µg/mL) in assay [4]; 8 µM (≈ 13.2 µg/mL) in assay [14]; at least 32 µM in [15]; 16 µM (≈ 26.5 µg/mL) in assay [16]; 32 µM (≈ 52.9 µg/mL) in assay [24]. The MIC in assay [25] is at least 32 µM; in assay [26] it was 4 µM (≈ 6.62 µg/mL); in [19], 4 µM (≈ 6.62 µg/mL).
Take `CC[C@H](C)[C@H](N)C(=O)N[C@@H](CO)C(=O)N[C@@H](CCC(N)=O)C(=O)N[C@@H](CO)C(=O)N[C@@H](CC(=O)O)C(=O)N[C@@H](C)C(=O)N[C@H](C(=O)N[C@@H](CC(C)C)C(=O)N[C@@H](CO)C(=O)N[C@@H](C)C(=O)N[C@H](C(=O)N[C@@H](Cc1c[nH]c2ccccc12)C(=O)N[C@@H](CO)C(=O)NCC(=O)N[C@H](C(=O)N[C@@H](CCCCN)C(=O)N[C@@H](CO)C(=O)N[C@@H](CC(C)C)C(=O)N[C@@H](Cc1ccccc1)C(N)=O)[C@@H](C)CC)[C@@H](C)CC)[C@@H](C)CC` [ISQSDAILSAIWSGIKSLF]: the MIC in [27] was 4 µM (≈ 8.14 µg/mL).
Turning to `CC[C@H](C)[C@H](NC(=O)[C@@H](N)C(C)C)C(=O)N1CCC[C@H]1C(=O)N[C@@H](Cc1ccccc1)C(=O)N[C@H](C(=O)N[C@@H](C)C(=O)N[C@@H](CO)C(=O)N[C@H](C(=O)N[C@@H](C)C(=O)N[C@@H](C)C(=O)N[C@@H](CCC(=O)O)C(=O)N[C@@H](CCSC)C(=O)N[C@@H](CCSC)C(=O)N[C@@H](Cc1cnc[nH]1)C(=O)N[C@@H](Cc1cnc[nH]1)C(=O)N[C@H](C(=O)N[C@@H](Cc1ccc(O)cc1)C(=O)N[C@H]1CSSC[C@@H](C(=O)O)NC(=O)[C@H](CCCN=C(N)N)NC(=O)[C@H](CCCCN)NC(=O)[C@H](CO)NC(=O)[C@H](C)NC(=O)[C@H](C)NC1=O)C(C)C)C(C)C)C(C)C` [VIPFVASVAAEMMHHVYCAASKRC], the MIC is 76.3 µM (≈ 200 µg/mL) with Candida albicans; at least 76.3 µM in the assay on Salmonella typhimurium; 9.54 µM (≈ 25 µg/mL) in the assay with Micrococcus luteus; at least 76.3 µM with Shigella dysenteriae; at least 76.3 µM in the assay with Serratia marcescens; above 76.3 µM against Pseudomonas aeruginosa. The MIC against Bacillus subtilis was at least 76.3 µM; in the assay on Proteus mirabilis it was at least 76.3 µM; against Escherichia coli, above 76.3 µM; with Klebsiella pneumoniae, above 76.3 µM.
